We go through 18 compounds from patent US9676782B2, “Substituted pyrazolo[1,5-a]pyrazines as negative allosteric modulators of metabotropic glutamate receptor 3” (Vanderbilt University, priority 2014, dated 2017).

One may read the IC50 as the concentration at which inhibition is half-maximal. Broadly, the EC50 is the midpoint of the concentration-response curve.

Each structure is given as a SMILES string. Where two headings read alike, the source gives them in different places.

One assay has as its target rat mGlu3 (Rattus norvegicus (Rat), UniProt P31422). The assay can be described thus: mGlu3 Ca2+ flux assay. Format: cell-based. The conditions noted are these: for IC50: NAM potency, decrease of glutamate EC80 response, >30,000 = no measurable activity, >10,000 = no plateau, read-out: rat mGlu3 IC50; for remaining activity at 30 µM: amplitude of response at 30 μM test compound as % of maximal response to glutamate, read-out: rat mGlu3 Glu max (%). The protocol: (§1) The cells were grown overnight at 37° C. in the presence of 5% CO2. […] Dye was removed, 20 μL of assay buffer was added, and the plate was incubated for 10 minutes at room temperature. Ca^2+ flux was measured using the Functional Drug Screening System (FDSS7000, Hamamatsu, Japan). […] All test compounds were dissolved and diluted to a concentration of 10 mM in 100% DMSO. […] Calcium fluorescence measures were recorded as fold over basal fluorescence; raw data was then normalized to the maximal response to glutamate. […] The raw data file containing all time points was used as the data source in the analysis template. This was saved by the FDSS as a tab-delimited text file. Data were normalized using a static ratio function (F/F0) for each measurement of the total 360 values per well divided by each well's initial value. […] This is sufficient time to capture the peak amplitude of the cellular calcium response. […] EC50 values for test compounds were generated by fitting the normalized values versus the log of the test compound concentration (in mol/L) using a 4 parameter logistic equation where none of the parameters were fixed. Each of the three values collected at each concentration of test compound were weighted evenly.
(A change in cytosolic calcium serves as a functional read-out for many receptors and channels.)

A further assay concerns the target rat mGlu5 (Rattus norvegicus (Rat), UniProt P31424). The assay can be described thus: mGlu5 Ca2+ flux assay. Format: cell-based. The conditions noted are these: for Fold selectivity (mGlu3 vs. mGlu5): ratio of rat mGlu5 EC50 or IC50 to rat mGlu3 IC50; for Emax at 30 µM: read-out: rat mGlu5 Glu max (%). The protocol:
as §1, with “for 5” for “for 10”

Where [1] appears, read: read-out: rat mGlu5 EC50 or IC50.
Where [2] appears, read: PAM, amplitude of response at 30 μM test compound as % of maximal response to glutamate.

Sequence of rat mGlu3 (P31422 23-879): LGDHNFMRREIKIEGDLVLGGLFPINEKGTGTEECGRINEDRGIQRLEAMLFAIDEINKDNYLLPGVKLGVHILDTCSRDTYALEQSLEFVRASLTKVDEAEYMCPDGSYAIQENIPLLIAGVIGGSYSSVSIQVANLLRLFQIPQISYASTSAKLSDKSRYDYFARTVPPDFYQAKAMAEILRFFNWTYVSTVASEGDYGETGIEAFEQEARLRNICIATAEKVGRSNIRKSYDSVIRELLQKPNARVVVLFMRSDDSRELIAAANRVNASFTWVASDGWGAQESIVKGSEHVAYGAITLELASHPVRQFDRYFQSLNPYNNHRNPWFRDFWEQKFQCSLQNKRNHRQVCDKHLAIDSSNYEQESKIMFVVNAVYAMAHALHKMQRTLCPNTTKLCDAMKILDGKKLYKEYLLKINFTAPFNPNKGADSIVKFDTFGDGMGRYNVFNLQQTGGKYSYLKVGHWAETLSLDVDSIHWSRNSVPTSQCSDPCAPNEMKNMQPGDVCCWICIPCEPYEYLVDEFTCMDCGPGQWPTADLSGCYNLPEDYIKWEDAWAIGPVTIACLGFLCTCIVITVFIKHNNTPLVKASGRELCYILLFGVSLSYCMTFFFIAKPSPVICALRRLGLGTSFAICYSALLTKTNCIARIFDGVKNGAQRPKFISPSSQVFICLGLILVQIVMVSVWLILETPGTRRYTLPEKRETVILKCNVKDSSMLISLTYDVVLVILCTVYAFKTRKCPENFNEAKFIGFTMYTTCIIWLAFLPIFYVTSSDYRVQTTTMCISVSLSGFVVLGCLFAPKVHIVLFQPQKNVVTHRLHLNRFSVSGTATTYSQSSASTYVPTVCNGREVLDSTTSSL
Sequence of rat mGlu5 (P31424 21-1203): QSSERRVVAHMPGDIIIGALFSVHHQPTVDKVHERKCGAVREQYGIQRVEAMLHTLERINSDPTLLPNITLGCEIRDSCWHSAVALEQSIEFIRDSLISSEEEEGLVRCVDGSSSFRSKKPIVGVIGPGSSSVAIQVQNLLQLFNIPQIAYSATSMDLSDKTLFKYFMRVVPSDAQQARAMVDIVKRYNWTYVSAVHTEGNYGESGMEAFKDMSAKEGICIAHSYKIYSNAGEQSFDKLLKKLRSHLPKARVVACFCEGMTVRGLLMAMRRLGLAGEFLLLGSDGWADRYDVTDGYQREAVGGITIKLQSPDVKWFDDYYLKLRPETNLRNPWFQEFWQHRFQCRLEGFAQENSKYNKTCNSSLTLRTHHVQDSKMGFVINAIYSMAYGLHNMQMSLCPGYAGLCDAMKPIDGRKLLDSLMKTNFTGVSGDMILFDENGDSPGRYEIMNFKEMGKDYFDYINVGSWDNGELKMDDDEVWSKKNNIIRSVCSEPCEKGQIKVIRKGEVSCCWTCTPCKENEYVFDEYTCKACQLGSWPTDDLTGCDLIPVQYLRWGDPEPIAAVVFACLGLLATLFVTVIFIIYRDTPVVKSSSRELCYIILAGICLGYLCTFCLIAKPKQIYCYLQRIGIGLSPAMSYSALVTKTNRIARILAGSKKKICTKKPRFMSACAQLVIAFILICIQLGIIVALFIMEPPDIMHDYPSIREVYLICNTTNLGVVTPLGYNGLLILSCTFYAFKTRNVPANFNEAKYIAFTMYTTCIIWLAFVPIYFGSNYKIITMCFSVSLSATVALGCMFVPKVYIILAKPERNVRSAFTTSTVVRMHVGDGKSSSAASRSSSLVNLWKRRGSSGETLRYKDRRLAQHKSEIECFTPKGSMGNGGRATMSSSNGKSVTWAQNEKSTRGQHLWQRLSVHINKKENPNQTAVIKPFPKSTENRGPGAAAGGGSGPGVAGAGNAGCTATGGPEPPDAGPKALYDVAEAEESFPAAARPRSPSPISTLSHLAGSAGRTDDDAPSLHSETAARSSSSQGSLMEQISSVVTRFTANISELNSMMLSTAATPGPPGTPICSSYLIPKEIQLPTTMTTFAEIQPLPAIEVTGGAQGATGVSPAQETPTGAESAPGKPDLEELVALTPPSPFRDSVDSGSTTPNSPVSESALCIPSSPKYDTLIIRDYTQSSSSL

`COc1ccc(N(C)Cc2cc3n(n2)CCN(c2ccc(C)cc2)C3=O)cc1` [Compound 99, 2-(((4-methoxyphenyl)(methyl)amino)methyl)-5-(p-tolyl)-6,7-dihydropyrazolo[1,5-a]pyrazin-4(5H)-one]: on rat mGlu3, the IC50 came to 675 nM and the remaining activity at 30 µM was found to be 1.2%. Besides, the “Fold selectivity (mGlu3 vs. mGlu5)” value on rat mGlu5 is on record as >44. For the same compound, the EC50 at rat mGlu5 (setting [1]) is > 30000 nM.

In the case of `CN(Cc1cc2n(n1)CCN(c1ccc(F)cc1)C2=O)c1ccc(Br)cc1` [Compound 91, 2-(((4-bromophenyl)(methyl)amino)methyl)-5-(4-fluorophenyl)-6,7-dihydropyrazolo[1,5-a]pyrazin-4(5H)-one], on rat mGlu3, the half-inhibitory concentration (IC50) turned out to be 592 nM and the remaining activity at 30 µM was found to be 2.53%. For the same compound, the “Fold selectivity (mGlu3 vs. mGlu5)” value at rat mGlu5 is given as >50. At rat mGlu5 (setting [1]), the EC50 is > 30000 nM.

Consider `COc1ccccc1N(C)Cc1cc2n(n1)CCN(c1ccc(F)cc1)C2=O` [Compound 85, 5-(4-fluorophenyl)-2-(((2-methoxyphenyl)(methyl)amino)methyl)-6,7-dihydropyrazolo[1,5-a]pyrazin-4(5H)-one], for which, on rat mGlu3, the IC50 was 9480 nM and the remaining activity at 30 µM is -7.96%. On rat mGlu5, the “Fold selectivity (mGlu3 vs. mGlu5)” value is given as >3.1. For the same compound, the EC50 at rat mGlu5 (setting [1]) was > 30000 nM.

On to `C[C@@H]1CN(c2ccc(F)cc2)C(=O)c2cc(CNc3c(F)cccc3F)nn21` [Compound 72, (R)-2-(((2,6-difluorophenyl)amino)methyl)-5-(4-fluorophenyl)-7-methyl-6,7-dihydropyrazolo[1,5-a]pyrazin-4(5H)-one], for which, on rat mGlu3, the remaining activity at 30 µM was found to be 4.1%. Also, the Emax at 30 µM on rat mGlu5 (setting [2]) came out at 59.9%.

For `C[C@@H]1CN(c2ccc(F)cc2)C(=O)c2cc(CNc3ccc(F)cc3)nn21` [Compound 56, (R)-5-(4-fluorophenyl)-2-(((4-fluorophenyl)amino)methyl)-7-methyl-6,7-dihydropyrazolo[1,5-a]pyrazin-4(5H)-one], on rat mGlu3, the IC50 worked out at 1160 nM and the remaining activity at 30 µM turned out to be 2.97%. Moreover, the “Fold selectivity (mGlu3 vs. mGlu5)” value on rat mGlu5 is >25. The EC50 at rat mGlu5 (setting [1]) was > 30000 nM.

For the compound `O=C1c2cc(CNc3ccc(F)cn3)nn2CCN1c1ccc(F)cc1` [Compound 155, 5-(4-fluorophenyl)-2-(((5-fluoropyridin-2-yl)amino)methyl)-6,7-dihydropyrazolo[1,5-a]pyrazin-4(5H)-one], the IC50 on rat mGlu3 was 1460 nM; on rat mGlu5 (compound noted as NAM or partial antagonist (PAnt) at mGlu5, glutamate EC80, read-out: rat mGlu5 EC50 or IC50), > 10000 nM. In addition, the remaining activity at 30 µM on rat mGlu3 amounted to 1.5%. Further, at rat mGlu5 (compound noted as NAM or partial antagonist (PAnt) at mGlu5, response at 30 μM as % of maximal glutamate response), the Emax at 30 µM stood at 11.3%. Besides, at rat mGlu5, the “Fold selectivity (mGlu3 vs. mGlu5)” value is given as >6.8.

For `COc1cccc(NCc2cc3n(n2)CCN(c2ccc(F)cc2)C3=O)c1` [Compound 10, 5-(4-fluorophenyl)-2-(((3-methoxyphenyl)amino)methyl)-6,7-dihydropyrazolo[1,5-a]pyrazin-4(5H)-one], at rat mGlu3, the half-inhibitory concentration (IC50) was 1780 nM and the remaining activity at 30 µM stood at 2.01%. Moreover, at rat mGlu5, the “Fold selectivity (mGlu3 vs. mGlu5)” value is recorded as >16. For the same compound, at rat mGlu5 (setting [1]), the EC50 was > 30000 nM.

Turning to `Cc1ccccc1NCc1cc2n(n1)CCN(c1ccc(F)cc1)C2=O` [Compound 4, 5-(4-fluorophenyl)-2-((o-tolylamino)methyl)-6,7-dihydropyrazolo[1,5-a]pyrazin-4(5H)-one], at rat mGlu3, the IC50 was determined as 2390 nM and the remaining activity at 30 µM came out at 2.62%. In addition, the Emax at 30 µM at rat mGlu5 (setting [2]) turned out to be 42.2%. For the same compound, at rat mGlu5, the “Fold selectivity (mGlu3 vs. mGlu5)” value is >4.1. For the same compound, the EC50 at rat mGlu5 (setting [1]) is > 10000 nM.

Take `Cc1cccc(NCc2cc3n(n2)[C@@H](C)CN(c2ccc(F)cc2)C3=O)c1` [Compound 51, (S)-5-(4-fluorophenyl)-7-methyl-2-((m-tolylamino)methyl)-6,7-dihydropyrazolo[1,5-a]pyrazin-4(5H)-one]: at rat mGlu3, the IC50 is 3010 nM and the remaining activity at 30 µM worked out at 3.21%. Also, the Emax at 30 µM at rat mGlu5 (setting [2]) worked out at 86.2%. Further, on rat mGlu5, the “Fold selectivity (mGlu3 vs. mGlu5)” value is recorded as 2.53. In addition, the EC50 at rat mGlu5 (setting [1]) stood at 7610 nM.

Take `COc1ccc(NCc2cc3n(n2)CCN(c2ccc(F)c(F)c2)C3=O)cc1` [Compound 1, 5-(3,4-Difluorophenyl)-2-(((4-methoxyphenyl)amino)methyl)-6,7-dihydropyrazolo[1,5-a]pyrazin-4(5H)-one]: on rat mGlu3, the remaining activity at 30 µM amounted to 4.04%. The “Fold selectivity (mGlu3 vs. mGlu5)” value at rat mGlu5 is on record as >20. At rat mGlu5 (setting [1]), the EC50 is > 30000 nM.

In the case of `COc1ccc(N(C)Cc2cc3n(n2)CCN(c2ccc(Cl)cc2F)C3=O)cc1` [Compound 125, 5-(4-chloro-2-fluorophenyl)-2-(((4-methoxyphenyl)(methyl)amino)methyl)-6,7-dihydropyrazolo[1,5-a]pyrazin-4(5H)-one], on rat mGlu3, the IC50 came out at 1380 nM and the remaining activity at 30 µM came out at 1.47%. In addition, at rat mGlu5, the “Fold selectivity (mGlu3 vs. mGlu5)” value is >21. The EC50 at rat mGlu5 (setting [1]) is > 30000 nM.

In the case of `O=C1c2cc(CNc3cccc(F)c3F)nn2CCN1c1ccc(F)cc1` [Compound 27, 2-(((2,3-difluorophenyl)amino)methyl)-5-(4-fluorophenyl)-6,7-dihydropyrazolo[1,5-a]pyrazin-4(5H)-one], at rat mGlu3, the IC50 stood at 586 nM and the remaining activity at 30 µM amounted to 2.82%. Also, the Emax at 30 µM on rat mGlu5 (setting [2]) came out at 90.8%. Further, the “Fold selectivity (mGlu3 vs. mGlu5)” value at rat mGlu5 is 4.06. On rat mGlu5 (setting [1]), the EC50 turned out to be 2380 nM.

As to `COc1ccc(N(C)Cc2cc3n(n2)CCN(c2cc(F)cc(OC)c2)C3=O)cc1` [Compound 132, 5-(3-fluoro-5-methoxyphenyl)-2-(((4-methoxyphenyl)(methyl)amino)methyl)-6,7-dihydropyrazolo[1,5-a]pyrazin-4(5H)-one], at rat mGlu3, the IC50 was 1340 nM and the remaining activity at 30 µM was found to be 1.5%. The “Fold selectivity (mGlu3 vs. mGlu5)” value at rat mGlu5 is on record as >22. The EC50 on rat mGlu5 (setting [1]) was > 30000 nM.

On to `O=C1c2cc(CNc3ccc(OC(F)F)cc3F)nn2CCN1c1cccc(F)c1` [Compound 95, 2-(((4-(Difluoromethoxy)-2-fluorophenyl)amino)methyl)-5-(3-fluorophenyl)-6,7-dihydropyrazolo[1,5-a]pyrazin-4(5H)-one], for which, at rat mGlu3, the IC50 was found to be 588 nM and the remaining activity at 30 µM was found to be 3.43%. Moreover, the Emax at 30 µM at rat mGlu5 (setting [2]) worked out at 31.1%. The “Fold selectivity (mGlu3 vs. mGlu5)” value at rat mGlu5 is on record as >17. Further, at rat mGlu5 (setting [1]), the EC50 is > 10000 nM.

On to `O=C1c2cc(CNc3ccc(OC(F)F)cc3F)nn2CCN1c1ccc(F)c(F)c1` [Compound 145, 2-(((4-(difluoromethoxy)-2-fluorophenyl)amino)methyl)-5-(3,4-difluorophenyl)-6,7-dihydropyrazolo[1,5-a]pyrazin-4(5H)-one], for which, at rat mGlu3, the half-inhibitory concentration (IC50) was 800 nM and the remaining activity at 30 µM is 2.55%. The “Fold selectivity (mGlu3 vs. mGlu5)” value on rat mGlu5 is >37. Further, the EC50 on rat mGlu5 (setting [1]) was > 30000 nM.

Turning to `O=C1c2cc(CNc3cccc(C(F)(F)F)n3)nn2CCN1c1ccc(F)cc1` [Compound 166, 5-(4-fluorophenyl)-2-(((6-(trifluoromethyl)pyridin-2-yl)amino)methyl)-6,7-dihydropyrazolo[1,5-a]pyrazin-4(5H)-one], at rat mGlu3, the IC50 is 2350 nM and the remaining activity at 30 µM came out at 2.06%. Moreover, at rat mGlu5 (setting [2]), the Emax at 30 µM was determined as 50.6%. Further, the “Fold selectivity (mGlu3 vs. mGlu5)” value at rat mGlu5 was >4.2. Also, the EC50 at rat mGlu5 (setting [1]) is > 10000 nM.

Take `O=C1c2cc(CNc3cc(F)ccc3F)nn2CCN1c1ccc(F)cc1` [Compound 29, 2-(((2,5-difluorophenyl)amino)methyl)-5-(4-fluorophenyl)-6,7-dihydropyrazolo[1,5-a]pyrazin-4(5H)-one]: at rat mGlu3, the IC50 is 508 nM and the remaining activity at 30 µM is 2.45%. In addition, the Emax at 30 µM at rat mGlu5 (setting [2]) is 87.5%. For the same compound, the “Fold selectivity (mGlu3 vs. mGlu5)” value at rat mGlu5 was found to be 3.23. In addition, the EC50 at rat mGlu5 (setting [1]) worked out at 1640 nM.

In the case of `Cc1ccc(NCc2cc3n(n2)CCN(c2ccc(F)cc2)C3=O)c(F)c1` [Compound 35, 2-(((2-fluoro-4-methylphenyl)amino)methyl)-5-(4-fluorophenyl)-6,7-dihydropyrazolo[1,5-a]pyrazin-4(5H)-one], at rat mGlu3, the IC50 is 799 nM and the remaining activity at 30 µM turned out to be 1.68%. For the same compound, the Emax at 30 µM at rat mGlu5 (setting [2]) amounted to 97.4%. The “Fold selectivity (mGlu3 vs. mGlu5)” value on rat mGlu5 was determined as 5.97. The EC50 at rat mGlu5 (setting [1]) turned out to be 4770 nM.
